Test results published in patent US6914045B2, “Glycopeptide antibiotics” (Wyeth Holdings Corporation, priority 2001, dated 2005).
Converted amounts (≈) assume the structure as drawn. “And” between values parts separate entries of the source, which are not always exact repeats. Equal values may be shown once.

Key:
Staphylococcus aureus = assay: zone of inhibition, agar well assay plate; assay type: cell-based; settings: 25 μl of extract per 5 mm well, incubated overnight at 37° C.
Protocol: Protocol for Assay Plate Staphylococcus aureus
Inoculate 10 mL of Tryptic Soy Broth with a loopful of slant culture, Staphylococcus aureus, and place in a stationary rack at 37° C. After 16-18 hour incubation, the Optical Density (OD) of the culture is read@A600 nm, using a 1:10 dilution. OD should be between 0.1-0.3, and if not adjust with Tryptic Soy Broth. A 40 mL sample of Nutrient Agar, pH 6.8 is inoculated with 90 ul of S. aureus culture and poured into a sterile petri dish. When the agar has solidified, wells (5 mm) are plated using an automated welling device. Wells are inoculated with 25 μl of extract and incubated overnight at 37° C. Zones of inhibition are measured and recorded the following morning.

Escherichia coli = assay: in vitro antibacterial evaluation, MIC by broth dilution; assay type: cell-based; settings: 18 hours at 35° C.
Summary of the method: (§1)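 Test organisms, which included recent clinical isolates resistant to methicillin, penicillin and/or vancomycin, were inoculated at 5×10^5 CFU/mL into Muller-Hinton II […] containing antibiotic at 64-0.06 μg/mL. Minimum inhibitory concentrations were then read as the lowest level inhibiting growth.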

Staphylococcus sp. = assay: as above; assay type: cell-based; settings: broth dilution, 18 hours at 35° C.
Summary of the method: as §1

Enterococcus sp. = assay: as above; assay type: cell-based; settings: broth dilution, 18 hours at 35° C.
Summary of the method: as §1

Streptococcus sp. = assay: as above; assay type: cell-based; settings: broth dilution, 18 hours at 35° C.
Summary of the method: as §1

[1] = test system: Enterococcus faecalis (GC 6189); assay: acute lethal infection in mice; assay type: in vivo; settings: female CD-1 mice, intraperitoneal challenge, intravenous 30 min. after infection, 7 day survival
Summary of the method: (§2)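 Female CD-1 mice (20+/−2 gm) were infected intraperitoneally with enough bacteria, suspended in trypticase soy broth or hog gastric mucin, to kill untreated controls within 24-48 hr. Compound in saline or 5% dextrose was given intravenously 30 min post-infection, five mice per dose. ED50 came from pooled 7 day survival of 3 tests.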

[2] = test system: Staphylococcus aureus-SMITH (GC 4543); assay: acute lethal infection in mice; assay type: in vivo; settings: acute lethal infection, female CD-1 mice, intraperitoneal challenge, intravenous 30 min. after infection, 7 day survival
Summary of the method: as §2

CCCCCCC(=O)OC1C(OC2C(CO)OC(Oc3ccc(CC4NC(=O)C(C(C)c5ccccc5)NC(=O)CNC(=O)C(CO)NC(=O)C(C(O)C5CNC(=N)N5C5OC(CO)C(O)C(O)C5O)NC(=O)C(C(O)C5CNC(=N)N5)NC4=O)cc3)C(O)C2O)OC(CO)C(O)C1O (stereo not drawn) [Example 274a, Cyclo[glycyl-β-methylphenylalanyl-O-[4-O-(2-O-heptanoyl-hexopyranosyl)-hexopyranosyl]tyrosyl-3-(2-iminoimidazolidin-4-yl)seryl-3-(3-hexopyranosyl-2-iminoimidazolidin-4-yl)serylseryl]]
Zone of Inhibition vs. S. aureus (Staphylococcus aureus): 9 mm

CC(C)CCC(=O)OC1C(CO)OC(OC2C(CO)OC(Oc3ccc(CC4NC(=O)C(C(C)c5ccccc5)NC(=O)CNC(=O)C(CO)NC(=O)C(C(O)C5CNC(=N)N5C5OC(CO)C(O)C(O)C5O)NC(=O)C(C(O)C5CNC(=N)N5)NC4=O)cc3)C(O)C2O)C(O)C1O (stereo not drawn) [Example 270c, Cyclo[glycyl-β-methylphenylalanyl-O-[4-O-[4-O-(4-methylpentanoyl)hexopyranosyl]-hexopyranosyl]tyrosyl-3-(2-iminoimidazolidin-4-yl)seryl-3-(3-hexopyranosyl-2-iminoimidazolidin-4-yl)serylseryl]]
Zone of Inhibition vs. S. aureus (Staphylococcus aureus): 11 mm

CCCCCC(=O)OC1C(O)C(CO)OC(OC2C(CO)OC(Oc3ccc(CC4NC(=O)C(C(C)c5ccccc5)NC(=O)CNC(=O)C(CO)NC(=O)C(C(O)C5CNC(=N)N5C5OC(CO)C(O)C(O)C5O)NC(=O)C(C(O)C5CNC(=N)N5)NC4=O)cc3)C(O)C2O)C1O (stereo not drawn) [Example 273b, Cyclo[glycyl-β-methylphenylalanyl-O-[4-O-(3-O-hexanoyl-hexopyranosyl)-hexopyranosyl]tyrosyl-3-(2-iminoimidazolidin-4-yl)seryl-3-(3-hexopyranosyl-2-iminoimidazolidin-4-yl)serylseryl]]
Zone of Inhibition vs. S. aureus (Staphylococcus aureus): 9 mm and 8 mm

CCC(C)CC(=O)OC1C(CO)OC(OC2C(CO)OC(Oc3ccc(CC4NC(=O)C(C(C)c5ccccc5)NC(=O)CNC(=O)C(CO)NC(=O)C(C(O)C5CNC(=N)N5C5OC(CO)C(O)C(O)C5O)NC(=O)C(C(O)C5CNC(=N)N5)NC4=O)cc3)C(O)C2O)C(O)C1O (stereo not drawn) [Example 271c, Cyclo[glycyl-β-methylphenylalanyl-O-[4-O-[4-O-(3-methylpentanoyl)hexopyranosyl]-hexopyranosyl]tyrosyl-3-(2-iminoimidazolidin-4 yl)seryl-3-(3-hexopyranosyl-2-iminoimidazolidin-4-yl)serylseryl]]
Zone of Inhibition vs. S. aureus (Staphylococcus aureus): 12 mm

Cc1ccc(CC2OCC3OC(OC4C(CO)OC(Oc5ccc(CC6NC(=O)C(C(C)c7ccccc7)NC(=O)CNC(=O)C(CO)NC(=O)C(C(O)C7CNC(=N)N7C7OC(CO)C(O)C(O)C7O)NC(=O)C(C(O)C7CNC(=N)N7)NC6=O)cc5)C(O)C4O)C(O)C(O)C3O2)cc1 (stereo not drawn) [Example 119, Cyclo[glycyl-β-methylphenylalanyl-O-[4-O-[4,6-O-(4-methylphenethylidene)hexopyranosyl]-hexopyranosyl]tyrosyl-3-(2-iminoimidazolidin-4-yl)seryl-3-(3-hexopyranosyl-2-iminoimidazolidin-4-yl)serylseryl]]
MIC Escherichia coli (ATCC 25922) (Escherichia coli; strain ATCC 25922): 32 µg/mL (≈ 22.7 µM)
MIC Escherichia coli (GC 4559) (Escherichia coli; strain GC 4559): 32 µg/mL (≈ 22.7 µM)
MIC Escherichia coli (GC 4560) (Escherichia coli; strain GC 4560): 1 µg/mL (≈ 0.708 µM)
MIC Coagulase Negative Staphylococcus (GC 4547) (Staphylococcus sp.): 1 µg/mL (≈ 0.708 µM)
MIC Coagulase Negative Staphylococcus (GC 4548) (Staphylococcus sp.): 1 µg/mL (≈ 0.708 µM)
MIC Coagulase Negative Staphylococcus (GC 4549) (Staphylococcus sp.): 1 µg/mL (≈ 0.708 µM)
MIC Coagulase Negative Staphylococcus (GC 4551) (Staphylococcus sp.): 1 µg/mL (≈ 0.708 µM)
MIC Coagulase Negative Staphylococcus (GC 6257) (Staphylococcus sp.): <0.5 µg/mL
MIC Staphylococcus aureus (ATCC 29213) (Staphylococcus sp.): 1 µg/mL (≈ 0.708 µM)
MIC Staphylococcus aureus (GC 1131) (Staphylococcus sp.): 1 µg/mL (≈ 0.708 µM)
MIC Staphylococcus aureus (GC 3051) (Staphylococcus sp.): 1 µg/mL (≈ 0.708 µM)
MIC Staphylococcus aureus (GC 3053) (Staphylococcus sp.): 2 µg/mL (≈ 1.42 µM)
MIC Staphylococcus aureus (GC 4541) (Staphylococcus sp.): 1 µg/mL (≈ 0.708 µM)
MIC Staphylococcus aureus (GC 4542) (Staphylococcus sp.): 1 µg/mL (≈ 0.708 µM)
MIC Staphylococcus aureus (GC 4544) (Staphylococcus sp.): 1 µg/mL (≈ 0.708 µM)
MIC Staphylococcus aureus (GC 4545) (Staphylococcus sp.): 1 µg/mL (≈ 0.708 µM)
MIC Staphylococcus aureus-SMITH (GC 4543) (Staphylococcus sp.): 1 µg/mL (≈ 0.708 µM)
MIC Staphylococcus haemolyticus (GC 4546) (Staphylococcus sp.): 1 µg/mL (≈ 0.708 µM)
MIC Staphylococcus aureus (GC 1131) (Staphylococcus sp.; inoculum 5×10^5 CFU/mL, strain GC 1131): 1 µg/mL (≈ 0.708 µM)
MIC Staphylococcus aureus (ATCC 29213) (Staphylococcus sp.; strain ATCC 29213): 1 µg/mL (≈ 0.708 µM)
MIC Staphylococcus aureus (GC 3051) (Staphylococcus sp.; strain GC 3051): 1 µg/mL (≈ 0.708 µM)
MIC Staphylococcus aureus (GC 3053) (Staphylococcus sp.; strain GC 3053): 2 µg/mL (≈ 1.42 µM)
MIC Staphylococcus aureus (GC 4541) (Staphylococcus sp.; strain GC 4541): 1 µg/mL (≈ 0.708 µM)
MIC Staphylococcus aureus (GC 4542) (Staphylococcus sp.; strain GC 4542): 1 µg/mL (≈ 0.708 µM)
MIC Staphylococcus aureus (GC 4544) (Staphylococcus sp.; strain GC 4544): 1 µg/mL (≈ 0.708 µM)
MIC Staphylococcus aureus (GC 4545) (Staphylococcus sp.; strain GC 4545): 1 µg/mL (≈ 0.708 µM)
MIC Staphylococcus haemolyticus (GC 4546) (Staphylococcus sp.; strain GC 4546): 1 µg/mL (≈ 0.708 µM)
MIC Coagulase Negative Staphylococcus (GC 4547) (Staphylococcus sp.; strain GC 4547): 1 µg/mL (≈ 0.708 µM)
MIC Coagulase Negative Staphylococcus (GC 4548) (Staphylococcus sp.; strain GC 4548): 1 µg/mL (≈ 0.708 µM)
MIC Coagulase Negative Staphylococcus (GC 4549) (Staphylococcus sp.; strain GC 4549): 1 µg/mL (≈ 0.708 µM)
MIC Coagulase Negative Staphylococcus (GC 4551) (Staphylococcus sp.; strain GC 4551): 1 µg/mL (≈ 0.708 µM)
MIC Coagulase Negative Staphylococcus (GC 6257) (Staphylococcus sp.; strain GC 6257): <0.5 µg/mL
MIC Staphylococcus aureus-SMITH (GC 4543) (Staphylococcus sp.; strain SMITH GC 4543): 1 µg/mL (≈ 0.708 µM)
MIC Enterococcus avium (GC 4558) (Enterococcus sp.; Enterococcus avium (GC 4558)): 4 µg/mL (≈ 2.83 µM)
MIC Enterococcus faecalis (ATCC 29212) (Enterococcus sp.; Enterococcus faecalis (ATCC 29212)): 2 µg/mL (≈ 1.42 µM)
MIC Enterococcus faecalis (GC 2242) (Enterococcus sp.; Enterococcus faecalis (GC 2242)): 2 µg/mL (≈ 1.42 µM)
MIC Enterococcus faecalis (GC 2691) (Enterococcus sp.; Enterococcus faecalis (GC 2691)): 2 µg/mL (≈ 1.42 µM)
MIC Enterococcus faecalis (GC 3059) (Enterococcus sp.; Enterococcus faecalis (GC 3059)): >64 µg/mL
MIC Enterococcus faecalis (GC 4552) (Enterococcus sp.; Enterococcus faecalis (GC 4552)): 2 µg/mL (≈ 1.42 µM)
MIC Enterococcus faecalis (GC 4553) (Enterococcus sp.; Enterococcus faecalis (GC 4553)): 4 µg/mL (≈ 2.83 µM)
MIC Enterococcus faecalis (GC 4554) (Enterococcus sp.; Enterococcus faecalis (GC 4554)): 2 µg/mL (≈ 1.42 µM)
MIC Enterococcus faecalis (GC 6189) (Enterococcus sp.; Enterococcus faecalis (GC 6189)): 2 µg/mL (≈ 1.42 µM)
MIC Enterococcus faecium (GC 2243) (Enterococcus sp.; Enterococcus faecium (GC 2243)): 4 µg/mL (≈ 2.83 µM)
MIC Enterococcus faecium (GC 4556) (Enterococcus sp.; Enterococcus faecium (GC 4556)): 2 µg/mL (≈ 1.42 µM)
MIC Enterococcus faecium (GC 4557) (Enterococcus sp.; Enterococcus faecium (GC 4557)): 1 µg/mL (≈ 0.708 µM)
MIC Enterococcus faecalis (ATCC 29212) (Enterococcus sp.; strain ATCC 29212): 2 µg/mL (≈ 1.42 µM)
MIC Enterococcus faecalis (GC 2242) (Enterococcus sp.; strain GC 2242): 2 µg/mL (≈ 1.42 µM)
MIC Enterococcus faecium (GC 2243) (Enterococcus sp.; strain GC 2243): 4 µg/mL (≈ 2.83 µM)
MIC Enterococcus faecalis (GC 2691) (Enterococcus sp.; strain GC 2691): 2 µg/mL (≈ 1.42 µM)
MIC Enterococcus faecalis (GC 3059) (Enterococcus sp.; strain GC 3059): >64 µg/mL
MIC Enterococcus faecalis (GC 4552) (Enterococcus sp.; strain GC 4552): 2 µg/mL (≈ 1.42 µM)
MIC Enterococcus faecalis (GC 4553) (Enterococcus sp.; strain GC 4553): 4 µg/mL (≈ 2.83 µM)
MIC Enterococcus faecalis (GC 4554) (Enterococcus sp.; strain GC 4554): 2 µg/mL (≈ 1.42 µM)
MIC Enterococcus faecium (GC 4556) (Enterococcus sp.; strain GC 4556): 2 µg/mL (≈ 1.42 µM)
MIC Enterococcus faecium (GC 4557) (Enterococcus sp.; strain GC 4557): 1 µg/mL (≈ 0.708 µM)
MIC Enterococcus avium (GC 4558) (Enterococcus sp.; strain GC 4558): 4 µg/mL (≈ 2.83 µM)
MIC Enterococcus faecalis (GC 6189) (Enterococcus sp.; strain GC 6189): 2 µg/mL (≈ 1.42 µM)
MIC Streptococcus agalactiae (GC 4564) (Streptococcus sp.; Streptococcus agalactiae (GC 4564)): <0.5 µg/mL
MIC Streptococcus pneumoniae (ATCC 6301) (Streptococcus sp.; Streptococcus pneumoniae (ATCC 6301)): <0.5 µg/mL
MIC Streptococcus pneumoniae (GC 1894) (Streptococcus sp.; Streptococcus pneumoniae (GC 1894)): <0.5 µg/mL
MIC Streptococcus pneumoniae (GC 4565) (Streptococcus sp.; Streptococcus pneumoniae (GC 4565)): 1 µg/mL (≈ 0.708 µM)
MIC Streptococcus pyogenes (GC 4563) (Streptococcus sp.; Streptococcus pyogenes (GC 4563)): <0.5 µg/mL
MIC Streptococcus pneumoniae (ATCC 6301) (Streptococcus sp.; strain ATCC 6301): <0.5 µg/mL
MIC Streptococcus pneumoniae (GC 1894) (Streptococcus sp.; strain GC 1894): <0.5 µg/mL
MIC Streptococcus pyogenes (GC 4563) (Streptococcus sp.; strain GC 4563): <0.5 µg/mL
MIC Streptococcus agalactiae (GC 4564) (Streptococcus sp.; strain GC 4564): <0.5 µg/mL
MIC Streptococcus pneumoniae (GC 4565) (Streptococcus sp.; strain GC 4565): 1 µg/mL (≈ 0.708 µM)
median effective dose (ED50), Enterococcus faecalis (GC 6189) [1]: 0.41 mg/kg
median effective dose (ED50), Staphylococcus aureus-SMITH (GC 4543) [2]: 0.19 mg/kg
